Reference: US20190241952A1, “TAGGED MULTI-N[…] FOR NUCLEIC ACID SEQUENCING” (Roche Sequencing Solutions, Inc., priority 2016, published 2019)

Experiments:
[1] = system: exonuclease deficient variant of the Pol6 polymerase; assay: Displacement assay of single, double, triple and quadruple nucleotide substrates (Example 3); type: biochemical
Description: B. Assay protocol: The assay is a displacement assay using an exonuclease deficient variant of the Pol6 polymerase as described in Example 2, wherein polymerase activity is followed by fluorometrically monitoring the change in FRET between the Cy5 and BHQ labels as the polymerase incorporates the substrates in the DNA extension reaction.
Briefly, an assay solution containing the Pol6 polymerase, the 5′-Cy5-labelled displacement DNA template of SEQ ID NO: 124, and the 3′-BHQ-labelled quencher primer of SEQ ID NO: 124 in 75 mM potassium glutamate (“K-Glu”) is prepared in the absence of the substrate or Mg^2+ ion. A substrate solution is prepared containing either the multi-nucleotide compound to be assayed (i.e., “Y-Tag,” “W-Tag,” or “Q-Tag”), the non-tagged dT6P (“Hexa-PO4), or the tagged single nucleotide substrate, dA6P-dT30-C3 (”Full Tag“) of compound (3d). Also included in the substrate solution are the other three nucleotide-hexaphosphate (”dN6P″) substrates required for polymerase synthesis of a strand complementary to the DNA template (i.e., dA6P, dC6P, dG6P). This substrate solution is added to the polymerase solution. Assays are carried out for each of the test substrates at the following initial concentrations: 0.25 μM, 0.5 μM, 1.0 μM, 2.0 μM, 4.0 μM, and 8.0 μM. Additional K-Glu is added to bring the total K-Glu concentration in the mixture up to 300 mM. The polymerase reaction is then initiated by addition of MgCl2. Final concentrations in the assay reaction mixture are: 100 nM Pol6 enzyme, 50 nM Cy5 displacement DNA template, 40 μM each of other dN6P substrates, 300 mM K-Glu, 25 mM HEPES, 0.2 mM EDTA, 0.05% Triton X-100, 5 mM TCEP, 25 μg/mL BSA, 5 mM MgCl2, pH 7.5.

[2] = system: α-HL-Pol6 nanopore-polymerase conjugate; type: biochemical

Cc1cn([C@H]2C[C@H](O)[C@@H](COP(=O)(O)OP(=O)(O)OP(=O)(O)OP(=O)(O)OP(=O)(O)OP(=O)(O)O)O2)c(=O)[nH]c1=O [dT6P]
Rate ([1]; Initial Conc. Tag 0.25 μM): 0.57 Bases/sec
Rate ([1]; Initial Conc. Tag 0.5 μM): 2.87 Bases/sec
Rate ([1]; Initial Conc. Tag 1.0 μM): 3.48 Bases/sec
Rate ([1]; Initial Conc. Tag 2.0 μM): 3.89 Bases/sec
Rate ([1]; Initial Conc. Tag 4.0 μM): 4.48 Bases/sec
Rate ([1]; Initial Conc. Tag 8.0 μM): 4.24 Bases/sec

(dA6P)2-dT5-(BHEB)-dT14-C3: two dA6P via doubler-linker on tag SEQ ID NO: 109 (DNA ttttttttttttttttttt; two dA6P via doubler linker; BHEB; C3; (5)..(6) bis-hydroxyethylbenzene residue between nucleotide residues 5 and 6; (19)..(19) T-propanol)
blocking current level [2]: 0.88+/−0.03

(dC6P)2-dT20-C3: two dC6P via doubler-linker on tag SEQ ID NO: 105 (DNA tttttttttttttttttttt; two dC6P via doubler linker; C3; (20)..(20) T-propanol)
blocking current level [2]: 0.76+/−0.04

(dG6P)2-dT6-(Tmp)6-dT8-C3: two dG6P via doubler-linker on tag SEQ ID NO: 107 (DNA TTTTTTTTTTTTTT; two dG6P via doubler linker; Tmp; C3; (6)..(7) 6 thymidine methylphosphonate residues between nucleotide residues 6 and 7; (14)..(14) T-propanol)
blocking current level [2]: 0.38+/−0.08

(dT6P)2-dT4-(N3CET)3-dT13-C3: two dT6P via doubler-linker on tag SEQ ID NO: 106 (DNA TTTTTTTTTTTTTTTTT; chemistry not fully specified)
blocking current level [2]: 0.62+/−0.05
